This experiment has as its system Caco-2 cells. Nature of the experiment: Test of glucose uptake by cultured Caco-2 cells derived from human intestinal tract. In kind it is cell-based. As to conditions: 250 μg/ml, 15 min preincubation, 10 min incubation, differentiated Caco-2 cells; for glucose transportation (3H-labeled glucose uptake): FIG. 1, relative to control; for 3-O-methyl glucose transportation (3H-labeled uptake): FIG. 2, relative to control. The method, then: Cultured Caco-2 cells derived from human intestinal tracts were monolayer-cultured on a plate for about 10 days and then differentiated. A DMEM medium containing 10% fetal calf serum was used. Pigment 1 and pigment 2 (250 μg/ml each) were added to the differentiated Caco-2 cells, the resultants were preincubated for 15 minutes, and ^3H-labeled glucose or 3-O-methyl glucose was then added thereto, followed by incubation for 10 minutes. ^3H incorporated into the cells was analyzed to determine the amount of glucose or methyl glucose transported.
(Caco-2 cells form a polarised layer with tight junctions and transporters.)

On to `CC1O[C@@H](Oc2cc3c(O)cc(O)cc3[o+]c2-c2ccc(O)cc2)[C@@H](O)C(O)[C@H]1O` (stereo partly shown) [pigment 2, pelargonidin-3-rhamnoside], for which the “glucose transportation (3H-labeled glucose uptake)” value was “specifically inhibited” and the “3-O-methyl glucose transportation (3H-labeled uptake)” value is “specifically inhibited”.

Turning to `C[C@@H]1O[C@@H](Oc2cc3c(O)cc(O)cc3[o+]c2-c2ccc(O)c(O)c2)[C@H](O)[C@H](O)[C@H]1O.[Cl-]` [pigment 1, cyanidin-3-rhamnoside], the “glucose transportation (3H-labeled glucose uptake)” value is on record as “specifically inhibited” and the “3-O-methyl glucose transportation (3H-labeled uptake)” value is recorded as “specifically inhibited”.

Source of the values: patent US20080299239A1, “Inhibitor of Glucose Absorption and Method for Producing the Same” (NICHIREI FOODS INC., priority 2003, published 2008).
